Results from patent US8158657B2, “Heterocycles substituted pyridine derivatives and antifungal agent containing thereof” (Eisai R&D Management Co., Ltd., priority 2005, dated 2012).
In brackets after ≈: the same amount, converted by molar mass.

Columns and labels:
[1] = system: C. albicans E81022 strain; assay: Experimental systemic candidal infection model in mice; type: in vivo; conditions: peroral, 3 times every 4 hours, female ICR mice, observed until 14 days after infection
Description: A standing culture of C. albicans E81022 strain was carried out for 48 hours at 30° C. in sabouraud dextrose agar medium (SDA), the recovered fungal cells were suspended in sterilized physiological saline. By counting the fungal number on cytometry plate, the suspension was diluted to 2×10^7 cells/mL with sterilized physiological saline to serve fungal inoculum.
The fungal inoculum was used in the amounts of 0.2 mL to inoculate 4.5 to 5.5 week-old female ICR mice in the tail vein (4×10^6 cells/mouse).
From 0.5 to 1 hour after fungal inoculation, 0.2 mL of agent solution (dissolved or suspended in sterilized physiological saline containing 6.5% dimethyl sulfoxide and 3.5% Tween 80) was administered into the stomach using a peroral probe, 3 times every 4 hours. The agent concentration was 2.5 mg/kg or 10 mg/kg, and the number of animals in one group was 5 animals.
The protective effect was determined by observing life/death until 14 days after infection and calculating the mean survival days.

[2] = system: C. albicans CAF2-1 strain; assay: Anti-Candida activity, MIC measurement; type: cell-based; conditions: CAF21STRAIN, C. albicans CAF2-1, RPMI1640, 42-48 hours at 35° C., visual inspection, read-out: Anti-Candida Activity (minimum inhibitory concentration, MIC)
Outline: (§1)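 C. albicans CAF2-1 was grown 48 h at 30° C. in SDB and diluted in RPMI1640 to 1.2×10^3 cells/mL. Frozen A. fumigatus Tsukuba was diluted to 4.5×10^3 cells/mL. Compounds, two-fold serially diluted in DMSO from 2.5 mg/mL, were cultured aerobically with fungi for 42-48 h at 35° C.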

[3] = system: A. fumigatus Tsukuba strain; assay: Anti-Aspergillus activity, MIC measurement; type: cell-based; conditions: RPMI1640, 42-48 hours at 35° C., visual inspection, read-out: Anti-Aspergillus Activity (minimum inhibitory concentration, MIC)
Outline: as §1

Nc1ncccc1-c1cc(Cc2ccc(OCc3ccccc3)cc2)no1 [Example 1, 3-(3-(4-Benzyloxy-benzyl)-isoxazol-5-yl)-pyridin-2-ylamine]
Mean Survival Days ([1]; 2.5 mg/kg): 12.2 days
Mean Survival Days ([1]; 10 mg/kg): 14.0 days
MIC [2]: 0.2 µg/mL (≈ 0.56 µM)
MIC [3]: 0.2 µg/mL (≈ 0.56 µM)

Nc1ccc(-c2cc(Cc3ccc(OCc4ccc(F)cc4)nc3)no2)c(N)n1 [Example 116, 3-(3-(6-(4-Fluoro-benzyloxy)-pyridin-3-ylmethyl)-isoxazol-5-yl)-pyridin-2,6-diamine]
Mean Survival Days ([1]; 2.5 mg/kg): 4.6 days
Mean Survival Days ([1]; 10 mg/kg): 12.6 days
MIC [2]: 0.78 µg/mL (≈ 1.99 µM)
MIC [3]: 0.2 µg/mL (≈ 0.511 µM)

Nc1ccc(-c2cc(Cc3ccc(Oc4ccc(F)cc4)s3)no2)c(N)n1 [Example 155]
Mean Survival Days ([1]; 2.5 mg/kg): 10.4 days
Mean Survival Days ([1]; 10 mg/kg): 13.0 days
MIC [2]: 0.1 µg/mL (≈ 0.261 µM)
MIC [3]: 0.1 µg/mL (≈ 0.261 µM)

Nc1ncccc1-c1cc(Cc2ccc(OCc3ccccn3)cc2)no1 [Example 9, 3-(3-(4-(Pyridin-2-ylmethoxy)-benzyl)-isoxazol-5-yl)-pyridin-2-ylamine]
Mean Survival Days ([1]; 2.5 mg/kg): 12.8 days
Mean Survival Days ([1]; 10 mg/kg): 14.0 days
MIC [2]: 0.2 µg/mL (≈ 0.558 µM)
MIC [3]: 0.39 µg/mL (≈ 1.09 µM)

Nc1ncccc1-c1cnn(Cc2ccc(COc3ccccn3)cc2)c1 [Example 32, 3-(1-(4-(Pyridin-2-yloxymethyl)-benzyl)-1H-pyrazol-4-yl)-pyridin-2-ylamine]
Mean Survival Days ([1]; 2.5 mg/kg): 10.2 days
Mean Survival Days ([1]; 10 mg/kg): 12.2 days
MIC [2]: 0.2 µg/mL (≈ 0.56 µM)
MIC [3]: 0.78 µg/mL (≈ 2.18 µM)

COCc1ccc(-c2cc(Cc3ccc(OCc4ccccn4)cc3)no2)c(N)n1 [Example 166, 6-Methoxymethyl-3-(3-(4-(pyridin-2-ylmethoxy)-benzyl)-isoxazol-5-yl)pyridin-2-ylamine]
Mean Survival Days ([1]; 2.5 mg/kg): 3.4 days
Mean Survival Days ([1]; 10 mg/kg): 12.4 days
MIC [2]: 0.39 µg/mL (≈ 0.969 µM)
MIC [3]: 0.78 µg/mL (≈ 1.94 µM)

c1ccc(OCc2ccc(Cc3cc(-c4cccnc4)on3)cc2)nc1 [Example 202, 3-(3-(4-(Pyridin-2-yloxymethyl)-benzyl)-isoxazol-5-yl)-pyridine]
Mean Survival Days ([1]; 2.5 mg/kg): 2.4 days
Mean Survival Days ([1]; 10 mg/kg): 10.0 days
MIC [2]: 0.05 µg/mL (≈ 0.146 µM)
MIC [3]: 0.2 µg/mL (≈ 0.582 µM)

Nc1ncccc1-c1cc(Cc2ccc(OCc3cc(Cl)ccn3)cc2)no1 [Example 51, 3-(3-(4-(4-Chloro-pyridin-2-ylmethoxy)-benzyl)-isoxazol-5-yl)-pyridin-2-ylamine]
Mean Survival Days ([1]; 2.5 mg/kg): 13.5 days
Mean Survival Days ([1]; 10 mg/kg): 14.0 days
MIC [2]: 0.1 µg/mL (≈ 0.255 µM)
MIC [3]: 0.39 µg/mL (≈ 0.993 µM)

Nc1ccc(-c2cc(Cc3ccc(OCc4ccc(F)cn4)cc3)no2)c(N)n1 [Example 112, 3-(3-(4-(5-Fluoro-pyridin-2-ylmethoxy)-benzyl)-isoxazol-5-yl)-pyridin-2,6-diamine]
Mean Survival Days ([1]; 10 mg/kg): 12.2 days
MIC [2]: 0.78 µg/mL (≈ 1.99 µM)
MIC [3]: 0.39 µg/mL (≈ 0.996 µM)

N#Cc1cccc(COc2ccc(Cc3cc(-c4ccc(N)nc4N)on3)cc2)c1 [Example 212, 3-(4-(5-(2,6-Diamino-pyridin-3-yl)-isoxazol-3-ylmethyl)-phenoxymethyl)benzonitrile]
MIC [2]: 0.78 µg/mL (≈ 1.96 µM)
MIC [3]: 0.78 µg/mL (≈ 1.96 µM)

Nc1ccc(-c2cc(Cc3ccc(OC4CCCCC4)cc3)no2)c(N)n1 [Example 139, 3-(3-(4-Cyclohexyloxy-benzyl)-isoxazol-5-yl)-pyridin-2,6-diamine]
MIC [2]: 1.56 µg/mL (≈ 4.28 µM)
MIC [3]: > 25 µg/mL

Cc1ccc(COc2ccc(Cc3cc(-c4ccc(N)nc4N)on3)cc2)nc1 [Example 101]
MIC [2]: 1.56 µg/mL (≈ 4.03 µM)
MIC [3]: 1.56 µg/mL (≈ 4.03 µM)

Nc1ncccc1-c1cc(Cc2ccc(COc3cc(F)ccn3)cc2)no1 [Example 59, 3-(3-(4-(4-Fluoro-pyridin-2-yloxymethyl)-benzyl)-isoxazol-5-yl)-pyridin-2-ylamine]
MIC [2]: 0.39 µg/mL (≈ 1.04 µM)
MIC [3]: 0.39 µg/mL (≈ 1.04 µM)

CCCCOc1ccc(Cc2cc(-c3cccnc3N)on2)cc1 [Example 67, 3-(3-(4-Butoxy-benzyl)-isoxazol-5-yl)-pyridin-2-ylamine]
MIC [2]: 1.56 µg/mL (≈ 4.82 µM)
MIC [3]: 0.78 µg/mL (≈ 2.41 µM)

Nc1ccc(-c2cc(Cc3cccc(Oc4ccccc4)c3)no2)c(N)n1 [Example 123, 3-(3-(3-Phenoxy-benzyl)-isoxazol-5-yl)-pyridin-2,6-diamine]
MIC [2]: 0.2 µg/mL (≈ 0.558 µM)
MIC [3]: 0.39 µg/mL (≈ 1.09 µM)

Nc1ncccc1-c1cc(Cc2ccc(OCc3ccsc3)cc2)no1 [Example 77, 3-(3-(4-(Thiophen-3-ylmethoxy)-benzyl)-isoxazol-5-yl)-pyridin-2-ylamine]
MIC [2]: 0.2 µg/mL (≈ 0.55 µM)
MIC [3]: 0.39 µg/mL (≈ 1.07 µM)

Nc1ccc(-c2cc(Cc3cccc(-c4ccccc4)c3)no2)c(N)n1 [Example 147, 3-(3-Biphenyl-3-ylmethyl-isoxazol-5-yl)-pyridin-2,6-diamine]
MIC [2]: 1.56 µg/mL (≈ 4.56 µM)
MIC [3]: 1.56 µg/mL (≈ 4.56 µM)

CCCCOCc1ccc(Cc2cc(-c3cccnc3N)on2)cc1 [Example 4, 3-(3-(4-Butoxymethyl-benzyl)-isoxazol-5-yl)-pyridin-2-ylamine]
MIC [2]: 0.2 µg/mL (≈ 0.593 µM)
MIC [3]: 0.39 µg/mL (≈ 1.16 µM)

Nc1ncccc1-c1cnn(Cc2cccc(Oc3ccccc3)c2)c1 [Example 35, 3-(1-(3-Phenoxy-benzyl)-1H-pyrazol-4-yl)-pyridin-2-ylamine]
MIC [2]: 0.2 µg/mL (≈ 0.584 µM)
MIC [3]: 1.56 µg/mL (≈ 4.56 µM)

Nc1ncccc1-c1cc(Cc2ccc(COc3ccc(F)cn3)cc2)no1 [Example 56]
MIC [2]: 1.56 µg/mL (≈ 4.14 µM)
MIC [3]: > 25 µg/mL

Nc1ncccc1-c1cc(Cc2ccc(Oc3cccnc3)cc2)no1 [Example 76, 3-(3-(4-(Pyridin-3-yloxy)-benzyl)-isoxazol-5-yl)-pyridin-2-ylamine]
MIC [2]: 1.56 µg/mL (≈ 4.53 µM)
MIC [3]: 1.56 µg/mL (≈ 4.53 µM)

CCOC(=O)CNc1ccc(-c2cc(Cc3ccc(OCc4ccccc4)nc3)no2)c(N)n1 [Example 227, (6-Amino-5-(3-(6-benzyloxy-pyridin-3-ylmethyl)-isoxazol-5-yl)-pyridin-2-ylamino)-acetic acid ethyl ester]
MIC [2]: 1.56 µg/mL (≈ 3.39 µM)
MIC [3]: 1.56 µg/mL (≈ 3.39 µM)

Nc1ccc(-c2cc(Cc3ccc(OCc4ccccn4)cc3)no2)c(N)n1 [Example 22, 3-(3-(4-(Pyridin-2-ylmethoxy)-benzyl)-isoxazol-5-yl)-pyridin-2,6-diamine]
MIC [2]: 0.2 µg/mL (≈ 0.536 µM)
MIC [3]: 0.39 µg/mL (≈ 1.04 µM)

Nc1ncccc1-c1cc(Cc2ccc(Oc3cccnc3)nc2)no1 [Example 100, 3-(3-(6-(Pyridin-3-yloxy)-pyridin-3-ylmethyl)-isoxazol-5-yl)-pyrindin-2-ylamine]
MIC [2]: 3.13 µg/mL (≈ 9.06 µM)
MIC [3]: 6.25 µg/mL (≈ 18.1 µM)

Cc1ccc(OCc2ccc(Cc3cc(-c4cccnc4N)on3)cc2)nc1 [Example 44, 3-(3-(4-(5-Methyl-pyridin-2-yloxymethyl)-benzyl)-isoxazol-5-yl)-pyridin-2-ylamine]
MIC [2]: 1.56 µg/mL (≈ 4.19 µM)
MIC [3]: 1.56 µg/mL (≈ 4.19 µM)

Nc1ncccc1-c1cc(Cc2ccc(NCc3ccccc3)cc2)no1 [Example 68, 3-(3-(4-Benzylamino-benzyl)-isoxazol-5-yl)-pyridin-2-ylamine]
MIC [2]: 0.1 µg/mL (≈ 0.281 µM)
MIC [3]: 0.39 µg/mL (≈ 1.09 µM)

Nc1ccc(-c2cc(Cc3ccc(OCc4ccccc4)cc3)no2)cn1 [Example 28, 5-(3-(4-Benzyloxy-benzyl)-isoxazol-5-yl)-pyridin-2-ylamine]
MIC [2]: > 25 µg/mL
MIC [3]: 0.39 µg/mL (≈ 1.09 µM)

Cc1ccc(Oc2ccc(Cc3cc(-c4ccc(N)nc4N)on3)s2)cc1 [Example 106, 3-(3-(5-p-Tolyloxy-thiophen-2-ylmethyl)-isoxazol-5-yl)-pyridin-2,6-diamine]
MIC [2]: 0.78 µg/mL (≈ 2.06 µM)
MIC [3]: 0.2 µg/mL (≈ 0.528 µM)

Nc1ccc(-c2cc(Cc3ccc(Oc4cccc(F)c4)cc3)no2)c(N)n1 [Example 142, 3-(3-(4-(3-Fluoro-phenoxy)-benzyl)-isoxazol-5-yl)-pyridin-2,6-diamine]
MIC [2]: 0.39 µg/mL (≈ 1.04 µM)
MIC [3]: 0.39 µg/mL (≈ 1.04 µM)

Nc1ncccc1-c1cc(Cc2ccc(OCc3ccncc3)cc2)no1 [Example 49, 3-(3-(4-(Pyridin-4-ylmethoxy)-benzyl)-isoxazol-5-yl)-pyridin-2-ylamine]
MIC [2]: 0.05 µg/mL (≈ 0.14 µM)
MIC [3]: 0.39 µg/mL (≈ 1.09 µM)

CNc1ccc(-c2cc(Cc3ccc(OCc4ccccc4)nc3)no2)c(N)n1 [Example 224, 3-(3-(6-Benzyloxy-pyridin-3-ylmethyl)-isoxazol-5-yl)-N^6-methyl-pyridin-2,6-diamine]
MIC [2]: 0.39 µg/mL (≈ 1.01 µM)
MIC [3]: 0.2 µg/mL (≈ 0.516 µM)

Nc1ncccc1-c1cc(Cc2ccc(Nc3ccccc3)cc2)no1 [Example 69, 3-(3-(4-Phenylamino-benzyl)-isoxazol-5-yl)-pyridin-2-ylamine]
MIC [2]: 0.1 µg/mL (≈ 0.292 µM)
MIC [3]: 0.2 µg/mL (≈ 0.584 µM)

Nc1ncccc1-c1cc(Cc2ccc(Oc3ccccc3)nc2)no1 [Example 53, 3-(3-(6-Phenoxy-pyridin-3-ylmethyl)-isoxazol-5-yl)-pyridin-2-ylamine]
MIC [2]: 0.2 µg/mL (≈ 0.581 µM)
MIC [3]: 0.2 µg/mL (≈ 0.581 µM)

Cc1ccc(Cc2ccc(Cc3cc(-c4cccnc4N)on3)cc2)o1 [Example 46, 3-(3-(4-(5-Methyl-furan-2-ylmethyl)-benzyl)-isoxazol-5-yl)-pyridin-2-ylamine]
MIC [2]: 0.05 µg/mL (≈ 0.145 µM)
MIC [3]: 0.2 µg/mL (≈ 0.579 µM)

Nc1ccc(-c2cc(Cc3cccc(OCc4ccccc4)c3)no2)c(N)n1 [Example 119, 3-(3-(3-Benzyloxy-benzyl)-isoxazol-5-yl)-pyridin-2,6-diamine]
MIC [2]: 0.39 µg/mL (≈ 1.05 µM)
MIC [3]: 0.78 µg/mL (≈ 2.09 µM)
